From patent publication US5252570A, “Amidino and guanidino derivatives” (B.I. Italia, priority 1988, dated 1993)
Where a name gives a salt, the structure may show the parent alone. Read-outs that look alike come from different tables or passages of the source.

Target: T1, 5-HT3 receptors (Rattus norvegicus, UniProt P35563)
T1 construct: from tissue; host or cells: whole anesthetized rat (in vivo)
T1 sequence (P35563 24-483): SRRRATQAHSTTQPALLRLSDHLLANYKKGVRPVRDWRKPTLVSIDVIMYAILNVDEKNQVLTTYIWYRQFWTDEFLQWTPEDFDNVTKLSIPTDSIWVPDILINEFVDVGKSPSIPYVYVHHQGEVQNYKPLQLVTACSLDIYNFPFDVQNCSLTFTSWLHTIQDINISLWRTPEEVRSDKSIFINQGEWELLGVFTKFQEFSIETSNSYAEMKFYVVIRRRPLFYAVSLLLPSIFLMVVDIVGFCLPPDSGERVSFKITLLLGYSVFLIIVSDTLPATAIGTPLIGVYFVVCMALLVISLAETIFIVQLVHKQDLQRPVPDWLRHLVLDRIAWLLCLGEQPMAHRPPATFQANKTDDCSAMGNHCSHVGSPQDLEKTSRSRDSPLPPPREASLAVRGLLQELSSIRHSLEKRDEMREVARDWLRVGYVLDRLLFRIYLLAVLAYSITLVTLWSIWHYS
Test: Bezold-Jarish reflex in anesthetized rats (serotonin-induced bradycardia and hypotension)
Assay type: in vivo
Conditions: iv, antagonist injected 5 min before serotonin (20 μg/kg i.v.), urethane-anesthetized rats
Description: As already mentioned hereinbefore the new compounds of formula (I), according to the present invention, have interesting pharmacological properties owing to their ability to antagonize the physiological 5-HT effects at 5-HT3 receptors in warm-blooded animals. Therefore the new compounds are commercially useful in the prevention and in the treatment of disorders wherein 5-HT3 receptors are involved, such as chemotherapy or radiation induced nausea and emesis, migraine, delayed gastric emptying, stress-induced psychological disorders, irritable bowel syndrome, arrhytmia and rhinitis.
Bezold-Jarish Reflex in Anesthetized Rats
Rats (250-275 g) were anesthetized with urethane (1.25 g/kg ip.). The blood pressure and the heart rate were recorded from the left femoral artery by means of a pressure transducer (Statham) connected with a cardiotachometer. The Bezold-Jarish reflex was elicited by rapid intravenous injection of serotonin (20 μg/kg).
Increasing doses of antagonists were injected 5 min. before serotonin to evaluate their effect on the initial bradycardia and associated fall in blood pressure resulting from the reflex vagal stimulation. In other experiments, the right vagus nerve was stimulated with platinum electrodes at 10 V, 10 Hz, 2 msec, (Grass 248 stimulator), to evoke bradycardia. ED50 values were calculated by linear regression analysis of the data expressed as percentage inhibition.

[1] = inhibition of fall in blood pressure, read-out: Hypotension ED50

Compound: N=CN1[C@@H]2CC[C@H]1C[C@@H](OC(=O)c1cc(Cl)cc(Cl)c1)C2 [Compound 15, endo-(8-Iminomethyl-8-azabicyclo-[3.2.1]oct-3-yl)-3,5-dichlorobenzoate hydrochloride]
- ED50 [1]: 0.5 µg/kg
- ED50 (inhibition of initial bradycardia, read-out: Bradycardia ED50): 0.2 µg/kg

Compound: N=CN1[C@@H]2CC[C@H]1C[C@@H](OC(=O)c1c[nH]c3ccccc13)C2 [Compound 16, endo-8-(Iminomethyl-8-azabicyclo[3.2.1]oct-3-yl)-1H-indol-3-carboxylate hydrochloride]
- ED50 [1]: 0.3 µg/kg
